Laboratory results: the supplement of paper PMC10981050
Several values for one entry are separate records, joined by “and”; a condition that tells them apart may be missing. Identical values can stand only once. ± gives the standard deviation of the averaged measurements.

Tests used:
Experiment in all cases: cell viability relative to vehicle control; higher = less cytotoxic
MARIMO = conditions: SRSF2 genotype: SRSF2 WT
Method: (§1)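 Isogenic SRSF2 WT and CRISPR SRSF2 P95 mutant clones of MOLM14, OCI-AML2 and MARIMO were exposed to ROCK inhibitors at 7 doses (0.037 to 29.9 µM) for 48 h. Viability was read by CellTiter-Glo luminescence and normalised to the vehicle control on each plate (%).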

MOLM14 = system: MOLM14
Method: as §1

OCI-AML2 = conditions: SRSF2 genotype: SRSF2 WT
Method: as §1

[1] = 0.037 µM, SRSF2 genotype: SRSF2 WT
[2] = 0.129 µM, SRSF2 genotype: SRSF2 WT
[3] = 0.369 µM, SRSF2 genotype: SRSF2 WT
[4] = 0.997 µM, SRSF2 genotype: SRSF2 WT
[5] = 3.49 µM, SRSF2 genotype: SRSF2 WT
[6] = 9.97 µM, SRSF2 genotype: SRSF2 WT
[7] = 29.9 µM, SRSF2 genotype: SRSF2 WT

SMILES | cell viability (MARIMO; 0.037 µM) | cell viability (MARIMO; 0.129 µM) | cell viability (MARIMO; 0.369 µM) | cell viability (MARIMO; 0.997 µM) | cell viability (MARIMO; 3.49 µM) | cell viability (MARIMO; 9.97 µM) | cell viability (MARIMO; 29.9 µM) | cell viability (MOLM14; 0.037 µM, SRSF2 genotype: SRSF2 P95 mutant) | cell viability (MOLM14; [1]) | cell viability (MOLM14; 0.129 µM, SRSF2 genotype: SRSF2 P95 mutant) | cell viability (MOLM14; [2]) | cell viability (MOLM14; [3]) | cell viability (MOLM14; [4]) | cell viability (MOLM14; [5]) | cell viability (MOLM14; [6]) | cell viability (MOLM14; [7]) | cell viability (OCI-AML2; 0.037 µM) | cell viability (OCI-AML2; 0.129 µM) | cell viability (OCI-AML2; 0.369 µM) | cell viability (OCI-AML2; 0.997 µM) | cell viability (OCI-AML2; 3.49 µM) | cell viability (OCI-AML2; 9.97 µM) | cell viability (OCI-AML2; 29.9 µM)
CC1=C(C(=O)Nc2cc3cn[nH]c3cc2F)C(c2ccc(C(F)(F)F)cc2)CC(=O)N1 (stereo not given) | 103 ± 1.2% | 100.4 ± 0.44% | 96 ± 7.2% | 103 ± 5.5% | 98.9 ± 4.7% | 92.2 ± 11% | 95 ± 8.2% | 112% and 102% and 97.1% | 94 ± 18% | 107% and 105% and 103% | 96.4 ± 9.5% | 90.1 ± 19% | 82.5 ± 16% | 66.2 ± 16% | 60.3 ± 14% | 53 ± 13% | 107 ± 1.6% | 101 ± 5% | 96.9 ± 7.2% | 93.11 ± 0.21% | 68 ± 7.8% | 43.5 ± 9.3% | 39.4 ± 6%
CC1=C(C(=O)Nc2ccc3[nH]ncc3c2)C(c2ccc(F)cc2)NC(=O)N1 (stereo not given) | 102.6 ± 0.94% | 102 ± 2.7% | 100 ± 2.2% | 101 ± 4.8% | 96.1 ± 2.5% | 97.6 ± 13% | 99.8 ± 5.5% | – | 96.5 ± 12% | – | 96.7 ± 4.2% | 102 ± 14% | 95.8 ± 12% | 78.3 ± 14% | 66.3 ± 14% | 54.9 ± 10% | 110 ± 6.1% | 103 ± 7.4% | 102 ± 4.6% | 101 ± 6.8% | 78.3 ± 5.9% | 48.1 ± 6.7% | 39 ± 4.3%
C[C@@H](N)c1ccc(C(=O)Nc2ccnc3[nH]ccc23)cc1 | 99.5 ± 4.6% | 101 ± 3.1% | 96.2 ± 1.6% | 101 ± 1.3% | 93.99 ± 0.9% | 84.1 ± 7.2% | 35.1 ± 0.58% | – | 90.1 ± 21% | – | 94 ± 13% | 87.1 ± 18% | 81.4 ± 17% | 51.8 ± 14% | 29.4 ± 7.5% | 7.13 ± 1.6% | 104 ± 7.8% | 99.9 ± 1% | 93.2 ± 4.4% | 85 ± 1.9% | 52 ± 2% | 30.4 ± 4.6% | 7.89 ± 0.6%
